{"source": "patent US20070264340A1", "about": "“Aromachemicals” (Flexitral, Inc., priority 2006, published 2007)", "assay": "stability to acid", "assay_type": "physicochemical"}
{"smiles": "CC(C)=CCCC1(C)CC1C=O", "note": "(racemic) [2-methyl-2-(4-methylpent-3-en-1-yl)cyclopropanecarbaldehyde]", "values": [{"measurement": "stability to acid", "value": "stable to acid"}]}
